# Test system: hepatocytes
# Experiment: Seq-Well scRNA-Seq of hepatocytes after APAP overdose (signature scores, DEG vs untreated)
# Assay type: in vivo, mouse
# [1] = time point A6 vs untreated (UT)
compound,measurement,setting,value
"CC(=O)Nc1ccc(O)cc1 [APAP, acetaminophen]",avg_logFC Mrpl42,[1],−0.2845
same,avg_logFC Mrps18c,[1],−0.3663
same,avg_logFC Msn,[1],0.2602
same,avg_logFC Mup2,[1],−0.5045
same,avg_logFC Mvd,[1],−0.2704
same,avg_logFC Myo1b,[1],0.2624
same,avg_logFC Naprt1,[1],−0.3381
same,avg_logFC Ndufa1,[1],−0.3645
same,avg_logFC Ndufb3,[1],−0.3272
same,avg_logFC Ndufb8,[1],−0.3481
same,avg_logFC Ndufc1,[1],−0.3444
same,avg_logFC Ndufs4,[1],−0.3132
same,avg_logFC Ndufs8,[1],−0.3614
same,avg_logFC Ndufv3,[1],−0.3971
same,avg_logFC Nedd8,[1],−0.3564
same,avg_logFC Nedd41,[1],0.2812
same,avg_logFC Net1,[1],0.3479
same,avg_logFC Nop10,[1],−0.2919
same,avg_logFC Nrp1,[1],0.3608
same,avg_logFC Nucks1,[1],0.3558
same,avg_logFC Nudt4,[1],0.2542
same,avg_logFC Oaz1,[1],−0.3472
same,avg_logFC Otc,[1],−0.299
same,avg_logFC Pacsin2,[1],0.3708
same,avg_logFC Palld,[1],0.3414
same,avg_logFC Pank1,[1],−0.3527
same,avg_logFC Paqr9,[1],−0.3323
same,avg_logFC Pet100,[1],−0.28
same,avg_logFC Phc2,[1],0.312
same,avg_logFC Pi4k2a,[1],0.3536
same,avg_logFC Pik3c2a,[1],0.3249
same,avg_logFC Plk3,[1],0.4166
same,avg_logFC Pnkd,[1],−0.2928
same,avg_logFC Ppp1r12a,[1],0.3563
same,avg_logFC Prdx5,[1],−0.2821
same,avg_logFC Proc,[1],−0.2707
same,avg_logFC Psmb1,[1],−0.3585
same,avg_logFC Psmb3,[1],−0.3303
same,avg_logFC Psmb6,[1],−0.3194
same,avg_logFC Ptp4a1,[1],0.2627
same,avg_logFC Ptpn2,[1],0.2734
same,avg_logFC Ptpn12,[1],0.3342
same,avg_logFC Purb,[1],0.3525
same,avg_logFC Pvrl2,[1],−0.2613
same,avg_logFC Pxk,[1],0.2819
same,avg_logFC Pxmp2,[1],−0.3671
same,avg_logFC Rab6a,[1],0.3234
same,avg_logFC Rbm25,[1],0.4215
same,avg_logFC Rexo2,[1],−0.3263
same,avg_logFC Rlim,[1],0.3102
same,avg_logFC Rnaseh2c,[1],−0.3257
same,avg_logFC Romo1,[1],−0.3359
same,avg_logFC Rps3,[1],−0.3493
same,avg_logFC Rps9,[1],−0.3718
same,avg_logFC Rps10,[1],−0.3369
same,avg_logFC Rps21,[1],−0.3645
same,avg_logFC Rsl1d1,[1],0.3461
same,avg_logFC S100a1,[1],−0.3743
same,avg_logFC Sar1b,[1],−0.3079
same,avg_logFC Sbno1,[1],0.3671
same,avg_logFC Sc4mol,[1],−0.3262
same,avg_logFC Scaf11,[1],0.3598
same,avg_logFC Scd1,[1],−0.4661
same,avg_logFC Sdhb,[1],−0.2896
same,avg_logFC Sdhd,[1],−0.3353
same,avg_logFC Sdr9c7,[1],−0.26
same,avg_logFC Sdsl,[1],0.2593
same,avg_logFC Sec61b,[1],−0.2903
same,avg_logFC Selk,[1],−0.3383
same,avg_logFC Sf1,[1],0.3023
same,avg_logFC Sfpq,[1],0.394
same,avg_logFC Sgk1,[1],0.2843
same,avg_logFC Shb,[1],0.3152
same,avg_logFC Sigmar1,[1],−0.3055
same,avg_logFC Sirt3,[1],−0.346
same,avg_logFC Slc2a2,[1],−0.3123
same,avg_logFC Slc10a1,[1],−0.3258
same,avg_logFC Slco1a1,[1],−0.3628
same,avg_logFC Slco1a4,[1],0.3137
same,avg_logFC Slirp,[1],−0.3085
same,avg_logFC Smap2,[1],0.3489
same,avg_logFC Smdt1,[1],−0.3673
same,avg_logFC Smg1,[1],0.335
same,avg_logFC Srsf11,[1],0.4012
same,avg_logFC Stbd1,[1],−0.2732
same,avg_logFC Stk17b,[1],0.2911
same,avg_logFC Stom,[1],0.3232
same,avg_logFC Sult1d1,[1],−0.3165
same,avg_logFC Tbl1xr1,[1],0.3075
same,avg_logFC Tcea3,[1],−0.355
same,avg_logFC Tceb2,[1],−0.3207
same,avg_logFC Tgm2,[1],0.3993
same,avg_logFC Tgoln1,[1],0.2657
same,avg_logFC Timm8b,[1],−0.3936
same,avg_logFC Tjp1,[1],0.2862
same,avg_logFC Tm7sf2,[1],−0.3164
same,avg_logFC Tmbim6,[1],−0.2711
same,avg_logFC Tmem37,[1],−0.2822
same,avg_logFC Tmem86b,[1],−0.2582
same,avg_logFC Tmem106b,[1],0.2802
same,avg_logFC Tmem147,[1],−0.2838
same,avg_logFC Tmem150a,[1],−0.2535
same,avg_logFC Tmem160,[1],−0.339
same,avg_logFC Tmem242,[1],−0.2725
same,avg_logFC Tmem243,[1],−0.3791
same,avg_logFC Tmem258,[1],−0.2769
same,avg_logFC Tnks2,[1],0.3176
same,avg_logFC Tob1,[1],−0.3387
same,avg_logFC Tpr,[1],0.4409
same,avg_logFC Tsc22d1,[1],−0.2997
same,avg_logFC Tspo,[1],−0.3157
same,avg_logFC Txn1,[1],−0.3091
same,avg_logFC Ubl5,[1],−0.3033
same,avg_logFC Ucp2,[1],0.2612
same,avg_logFC Ugt2a3,[1],−0.3075
same,avg_logFC Uqcc2,[1],−0.3269
same,avg_logFC Wdr43,[1],0.3438
same,avg_logFC Yap1,[1],0.3281
same,avg_logFC Zfp683,[1],−0.4217
same,avg_logFC Zyx,[1],0.2983
same,avg_logFC mmu-mir-6236,[1],0.5206
same,Adck3 pct.1,time point A24,0.68
same,Arhgap5 pct.1,time point A24,0.566
same,Arhgef12 pct.1,time point A24,0.541
same,Arl5a pct.1,time point A24,0.459
same,Atp1a1 pct.1,time point A24,0.532
same,Atp5e pct.1,time point A24,0.688
same,Atp5f1 pct.1,time point A24,0.8
same,Atp6v1f pct.1,time point A24,0.244
same,Atp11c pct.1,time point A24,0.649
same,Atp13a3 pct.1,time point A24,0.546
same,Azin1 pct.1,time point A24,0.46
same,Bnip3 pct.1,time point A24,0.39
same,Brd2 pct.1,time point A24,0.512
same,Bzw1 pct.1,time point A24,0.487
same,Cald1 pct.1,time point A24,0.79
same,Caprin1 pct.1,time point A24,0.567
same,Ces3b pct.1,time point A24,0.683
same,Copb2 pct.1,time point A24,0.595
same,Copz1 pct.1,time point A24,0.501
same,Cox7b pct.1,time point A24,0.768
same,Cpne3 pct.1,time point A24,0.456
same,Ctnnb1 pct.1,time point A24,0.566
same,Cyp4a14 pct.1,time point A24,0.245
same,Cyp27a1 pct.1,time point A24,0.759
same,Ddost pct.1,time point A24,0.493
same,Dennd5b pct.1,time point A24,0.476
same,Deptor pct.1,time point A24,0.583
same,Dnajb9 pct.1,time point A24,0.373
same,Dnajb11 pct.1,time point A24,0.557
same,Eci1 pct.1,time point A24,0.581
same,Edem1 pct.1,time point A24,0.566
same,Ehhadh pct.1,time point A24,0.552
same,Eif4b pct.1,time point A24,0.542
same,Ell2 pct.1,time point A24,0.552
same,Eprs pct.1,time point A24,0.587
same,Erbb2ip pct.1,time point A24,0.482
same,Erp44 pct.1,time point A24,0.469
same,Esd pct.1,time point A24,0.67
same,Fam120a pct.1,time point A24,0.51
same,Fasn pct.1,time point A24,0.449
same,Fcgrt pct.1,time point A24,0.461
same,Gch1 pct.1,time point A24,0.502
same,Gm23935 pct.1,time point A24,0.919
same,Gm24245 pct.1,time point A24,0.369
same,Gpam pct.1,time point A24,0.329
same,Grlf1 pct.1,time point A24,0.413
same,Gstm3 pct.1,time point A24,0.293
same,H6pd pct.1,time point A24,0.675
same,Id3 pct.1,time point A24,0.278
same,Ide pct.1,time point A24,0.604
same,Iqgap2 pct.1,time point A24,0.748
same,Ireb2 pct.1,time point A24,0.469
same,Jak1 pct.1,time point A24,0.482
same,Lasp1 pct.1,time point A24,0.361
same,Lgr4 pct.1,time point A24,0.399
same,Lpin2 pct.1,time point A24,0.7
same,Macf1 pct.1,time point A24,0.349
same,Magt1 pct.1,time point A24,0.52
same,Man2a1 pct.1,time point A24,0.675
same,Mbnl1 pct.1,time point A24,0.428
same,Met pct.1,time point A24,0.434
same,Mt1 pct.1,time point A24,0.41
same,Mtss1 pct.1,time point A24,0.581
same,Nadk2 pct.1,time point A24,0.539
same,Narf pct.1,time point A24,0.411
same,Ndufa6 pct.1,time point A24,0.692
same,Ndufb6 pct.1,time point A24,0.636
same,Ndufc2 pct.1,time point A24,0.465
same,Nop10 pct.1,time point A24,0.227
same,Nr1i3 pct.1,time point A24,0.237
same,Nrp1 pct.1,time point A24,0.426
same,Osbp19 pct.1,time point A24,0.569
same,Osbpl1a pct.1,time point A24,0.592
same,Ostc pct.1,time point A24,0.514
same,Pik3c2a pct.1,time point A24,0.36
same,Plin5 pct.1,time point A24,0.181
same,Prdx4 pct.1,time point A24,0.47
same,Prdx5 pct.1,time point A24,0.731
same,Prkaa2 pct.1,time point A24,0.451
same,Prox1 pct.1,time point A24,0.477
same,Proz pct.1,time point A24,0.622

# Reference: patent US20230053540A1, “TREATMENT OF LIVER INJURY” (Massachusetts Institute of Technology, priority 2019, published 2023)
